Data reported in patent US20220187282A1, “CARDIOMYOCYTE PROLIFERATION” (The Council of the Queensland Institute of Medical Research, priority 2019, published 2022).
Like-named read-outs stand apart in the source and are kept apart here.

What was measured:
Assay type in all cases: biochemical
kinases [1] = target: kinases (Homo sapiens, UniProt O14965); conditions: AURKA (Aurora A) Z-Lyte SP; Test Conc(μM):ATP Conc(μM) 1:10
kinases [2] = target: kinases (Homo sapiens, UniProt O43318); conditions: MAP3K7/MAP3K7IP1 Lantha SP; Test Conc(μM) 1
kinases [3] = target: kinases (Homo sapiens, UniProt P31751); conditions: AKT2 (PKB beta) FRET-Z-Lyte SP; Test Conc(μM):ATP Conc(μM) 1:200
kinases [4] = target: kinases (Homo sapiens, UniProt P35626); conditions: ADRBK2 (GRK3) FRET-Z-Lyte SP; Test Conc(μM):ATP Conc(μM) 1:10
kinases [5] = target: kinases (Homo sapiens, UniProt P48426); conditions: PIP4K2A FRET-Adapta SP; Test Conc(μM):ATP Conc(μM) 1:10
kinases [6] = target: kinases (Homo sapiens, UniProt P48729); conditions: CSNK1A1 FRET-Z-Lyte SP; Test Conc(μM):ATP Conc(μM) 1:5
kinases [7] = target: kinases (Homo sapiens, UniProt P51812); conditions: RPS6KA3 (RSK2) FRET-Z-Lyte SP; Test Conc(μM):ATP Conc(μM) 1:10
kinases [8] = target: kinases (Homo sapiens, UniProt P53355); conditions: DAPK1 FRET-Adapta SP; Test Conc(μM):ATP Conc(μM) 1:5
kinases [9] = target: kinases (Homo sapiens, UniProt P54762); conditions: EPHB1 FRET-Z-Lyte SP; Test Conc(μM):ATP Conc(μM) 1:50
kinases [10] = target: kinases (Homo sapiens, UniProt P54764); conditions: EPHA4 FRET-Z-Lyte SP; Test Conc(μM):ATP Conc(μM) 1:100
kinases [11] = target: kinases (Homo sapiens, UniProt Q05655); conditions: PRKCD (PKC delta) Z-Lyte SP; Test Conc(μM):ATP Conc(μM) 1:25
kinases [12] = target: kinases (Homo sapiens, UniProt Q06187); conditions: BTK FRET-Z-Lyte SP; Test Conc(μM):ATP Conc(μM) 1:25
kinases [13] = target: kinases (Homo sapiens, UniProt Q06418); conditions: TYRO3 (RSE) FRET-Z-Lyte SP; Test Conc(μM):ATP Conc(μM) 1:25
kinases [14] = target: kinases (Homo sapiens, UniProt Q07912); conditions: TNK2 (ACK) FRET-Lantha SP; Test Conc(μM) 1
kinases [15] = target: kinases (Homo sapiens, UniProt Q13164); conditions: MAPK7 (ERK5) FRET-Z-Lyte SP; Test Conc(μM):ATP Conc(μM) 1:10
kinases [16] = target: kinases (Homo sapiens, UniProt Q13177); conditions: PAK2 (PAK65) FRET-Z-Lyte SP; Test Conc(μM):ATP Conc(μM) 1:75
kinases [17] = target: kinases (Homo sapiens, UniProt Q15569); conditions: TESK1 FRET-Lantha SP; Test Conc(μM) 1
kinases [18] = target: kinases (Homo sapiens, UniProt Q6DT37); conditions: CDC42 BPG FRET-Z-Lyte SP; Test Conc(μM):ATP Conc(μM) 1:5
kinases [19] = target: kinases (Homo sapiens, UniProt Q96NX5); conditions: CAMK1G FRET-Z-Lyte SP
kinases [20] = target: kinases (Homo sapiens, UniProt Q9BYT3); conditions: STK33 FRET-Lantha SP; Test Conc(μM) 1
kinases [21] = target: kinases (Homo sapiens, UniProt Q9H2G2); conditions: SLK Hu Bind FRET-Lantha SP; Test Conc(μM) 1
kinases [22] = target: kinases (Homo sapiens, UniProt Q9H2K8); conditions: TAOK3 (JIK) FRET-Lantha SP; Test Conc(μM) 1
kinases [23] = target: kinases (Homo sapiens, UniProt Q9NYA1); conditions: SPHK1 FRET-Adapta SP; Test Conc(μM):ATP Conc(μM) 1:10
kinases [24] = target: kinases (Homo sapiens, UniProt Q9UBE8); conditions: NLK FRET-Lantha SP; Test Conc(μM) 1
kinases [25] = target: kinases (Homo sapiens, UniProt Q9UQB9); conditions: AURKC (Aurora C) Z-Lyte SP; Test Conc(μM):ATP Conc(μM) 1:25
kinases [26] = target: kinases (Homo sapiens, UniProt Q9Y616); conditions: IRAK3 FRET-Lantha SP; Test Conc(μM) 1

kinases (Homo sapiens, UniProt P54764), sequence (P54764 20-986): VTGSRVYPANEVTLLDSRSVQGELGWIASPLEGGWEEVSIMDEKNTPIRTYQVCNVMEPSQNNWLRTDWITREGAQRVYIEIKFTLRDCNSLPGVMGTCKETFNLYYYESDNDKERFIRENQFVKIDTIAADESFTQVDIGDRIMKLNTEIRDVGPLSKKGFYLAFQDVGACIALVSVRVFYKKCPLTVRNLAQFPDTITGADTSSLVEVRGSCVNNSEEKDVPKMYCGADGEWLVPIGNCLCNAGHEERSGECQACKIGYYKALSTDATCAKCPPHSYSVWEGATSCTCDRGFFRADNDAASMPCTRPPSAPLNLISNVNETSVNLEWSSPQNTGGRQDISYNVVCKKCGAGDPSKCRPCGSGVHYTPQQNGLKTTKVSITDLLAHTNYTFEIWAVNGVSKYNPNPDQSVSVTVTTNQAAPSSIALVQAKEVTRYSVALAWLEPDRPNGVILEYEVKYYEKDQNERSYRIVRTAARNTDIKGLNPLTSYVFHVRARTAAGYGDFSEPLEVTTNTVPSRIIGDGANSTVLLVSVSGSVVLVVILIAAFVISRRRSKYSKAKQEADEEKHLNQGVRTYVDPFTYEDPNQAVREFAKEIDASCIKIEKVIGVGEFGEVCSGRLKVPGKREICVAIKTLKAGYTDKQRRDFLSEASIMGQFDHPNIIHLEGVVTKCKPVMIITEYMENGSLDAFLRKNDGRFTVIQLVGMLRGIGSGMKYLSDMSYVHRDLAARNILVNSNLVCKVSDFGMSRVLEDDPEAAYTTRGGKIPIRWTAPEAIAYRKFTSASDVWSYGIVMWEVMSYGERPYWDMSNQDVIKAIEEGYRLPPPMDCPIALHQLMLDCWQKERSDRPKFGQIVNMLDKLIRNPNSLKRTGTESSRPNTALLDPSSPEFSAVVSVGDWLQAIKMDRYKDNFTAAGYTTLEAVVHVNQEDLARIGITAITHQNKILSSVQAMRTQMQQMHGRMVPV
kinases (Homo sapiens, UniProt Q9UBE8), sequence (Q9UBE8 whole entry): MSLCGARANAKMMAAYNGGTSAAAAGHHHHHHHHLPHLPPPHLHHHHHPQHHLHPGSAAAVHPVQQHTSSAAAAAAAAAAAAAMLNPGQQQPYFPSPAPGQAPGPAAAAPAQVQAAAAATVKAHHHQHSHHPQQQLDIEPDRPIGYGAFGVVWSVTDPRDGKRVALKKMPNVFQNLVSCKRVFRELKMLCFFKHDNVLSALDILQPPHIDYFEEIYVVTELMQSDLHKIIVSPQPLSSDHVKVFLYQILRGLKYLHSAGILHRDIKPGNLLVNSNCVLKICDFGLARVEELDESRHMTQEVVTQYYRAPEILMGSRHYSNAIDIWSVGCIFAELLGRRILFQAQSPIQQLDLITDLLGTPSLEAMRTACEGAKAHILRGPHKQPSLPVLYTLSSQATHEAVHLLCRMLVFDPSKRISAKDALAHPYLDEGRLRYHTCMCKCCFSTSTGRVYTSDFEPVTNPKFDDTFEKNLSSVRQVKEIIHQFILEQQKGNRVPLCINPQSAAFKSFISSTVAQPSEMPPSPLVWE
kinases (Homo sapiens, UniProt O43318), sequence (O43318 whole entry): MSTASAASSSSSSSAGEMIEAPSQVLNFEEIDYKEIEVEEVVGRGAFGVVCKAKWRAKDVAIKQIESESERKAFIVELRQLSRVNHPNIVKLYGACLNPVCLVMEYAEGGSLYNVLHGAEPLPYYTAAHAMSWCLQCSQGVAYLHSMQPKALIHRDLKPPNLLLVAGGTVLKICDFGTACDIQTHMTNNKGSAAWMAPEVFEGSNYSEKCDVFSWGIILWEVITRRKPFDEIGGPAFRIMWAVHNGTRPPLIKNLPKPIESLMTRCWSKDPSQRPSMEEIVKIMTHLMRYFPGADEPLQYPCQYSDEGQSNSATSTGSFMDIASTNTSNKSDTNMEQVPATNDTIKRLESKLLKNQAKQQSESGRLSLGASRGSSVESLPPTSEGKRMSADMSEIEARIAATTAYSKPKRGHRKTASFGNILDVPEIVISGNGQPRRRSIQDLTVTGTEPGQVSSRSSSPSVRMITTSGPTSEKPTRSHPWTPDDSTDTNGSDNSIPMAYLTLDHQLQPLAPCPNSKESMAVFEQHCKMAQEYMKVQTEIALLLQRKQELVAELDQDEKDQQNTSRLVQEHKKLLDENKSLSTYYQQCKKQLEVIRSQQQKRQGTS
kinases (Homo sapiens, UniProt P35626), sequence (P35626 whole entry): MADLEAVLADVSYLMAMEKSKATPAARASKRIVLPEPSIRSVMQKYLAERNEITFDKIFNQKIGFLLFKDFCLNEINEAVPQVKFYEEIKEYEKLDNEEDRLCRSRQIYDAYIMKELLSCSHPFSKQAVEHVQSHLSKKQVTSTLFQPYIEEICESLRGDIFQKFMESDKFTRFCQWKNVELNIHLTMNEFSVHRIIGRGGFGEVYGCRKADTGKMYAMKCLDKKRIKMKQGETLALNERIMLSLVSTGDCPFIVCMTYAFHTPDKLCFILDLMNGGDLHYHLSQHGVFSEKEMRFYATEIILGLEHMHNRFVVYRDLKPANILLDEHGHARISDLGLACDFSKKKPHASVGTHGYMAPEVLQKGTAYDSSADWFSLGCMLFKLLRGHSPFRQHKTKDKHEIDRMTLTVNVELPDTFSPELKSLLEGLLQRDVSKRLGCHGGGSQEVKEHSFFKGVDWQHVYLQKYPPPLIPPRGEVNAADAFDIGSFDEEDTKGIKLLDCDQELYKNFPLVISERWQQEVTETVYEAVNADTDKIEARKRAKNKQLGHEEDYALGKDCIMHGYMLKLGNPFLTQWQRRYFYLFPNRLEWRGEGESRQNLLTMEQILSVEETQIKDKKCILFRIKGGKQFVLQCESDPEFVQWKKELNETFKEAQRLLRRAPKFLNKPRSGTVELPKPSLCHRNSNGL
kinases (Homo sapiens, UniProt Q13164), sequence (Q13164 whole entry): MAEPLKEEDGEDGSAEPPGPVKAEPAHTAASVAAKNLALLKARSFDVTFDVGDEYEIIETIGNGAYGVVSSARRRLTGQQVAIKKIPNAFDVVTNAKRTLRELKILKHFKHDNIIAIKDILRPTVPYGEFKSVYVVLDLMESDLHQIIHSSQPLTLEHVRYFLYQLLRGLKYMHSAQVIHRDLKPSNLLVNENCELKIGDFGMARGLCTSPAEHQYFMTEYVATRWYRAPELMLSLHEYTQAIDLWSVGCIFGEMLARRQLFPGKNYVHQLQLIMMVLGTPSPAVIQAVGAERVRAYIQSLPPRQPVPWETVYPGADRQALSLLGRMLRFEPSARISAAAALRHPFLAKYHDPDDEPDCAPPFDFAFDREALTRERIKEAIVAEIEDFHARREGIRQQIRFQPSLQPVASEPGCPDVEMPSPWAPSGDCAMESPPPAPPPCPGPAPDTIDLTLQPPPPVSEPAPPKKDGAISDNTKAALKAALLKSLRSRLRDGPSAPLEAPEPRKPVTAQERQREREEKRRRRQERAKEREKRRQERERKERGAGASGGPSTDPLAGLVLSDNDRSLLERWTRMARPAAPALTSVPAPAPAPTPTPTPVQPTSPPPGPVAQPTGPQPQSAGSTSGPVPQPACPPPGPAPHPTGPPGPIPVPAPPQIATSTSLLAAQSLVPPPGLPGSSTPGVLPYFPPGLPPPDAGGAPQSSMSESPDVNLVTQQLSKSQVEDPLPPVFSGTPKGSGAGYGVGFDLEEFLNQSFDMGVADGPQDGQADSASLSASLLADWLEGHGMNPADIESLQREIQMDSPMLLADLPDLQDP
kinases (Homo sapiens, UniProt Q9UQB9), sequence (Q9UQB9 whole entry): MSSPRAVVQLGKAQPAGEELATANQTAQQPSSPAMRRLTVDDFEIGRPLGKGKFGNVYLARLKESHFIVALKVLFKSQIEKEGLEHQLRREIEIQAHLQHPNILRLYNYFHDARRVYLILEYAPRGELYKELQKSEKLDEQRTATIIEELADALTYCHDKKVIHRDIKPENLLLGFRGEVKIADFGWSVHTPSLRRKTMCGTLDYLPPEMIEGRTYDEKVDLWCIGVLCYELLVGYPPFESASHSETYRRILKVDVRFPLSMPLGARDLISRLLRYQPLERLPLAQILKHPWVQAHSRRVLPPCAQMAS
kinases (Homo sapiens, UniProt Q06418), sequence (Q06418 41-890): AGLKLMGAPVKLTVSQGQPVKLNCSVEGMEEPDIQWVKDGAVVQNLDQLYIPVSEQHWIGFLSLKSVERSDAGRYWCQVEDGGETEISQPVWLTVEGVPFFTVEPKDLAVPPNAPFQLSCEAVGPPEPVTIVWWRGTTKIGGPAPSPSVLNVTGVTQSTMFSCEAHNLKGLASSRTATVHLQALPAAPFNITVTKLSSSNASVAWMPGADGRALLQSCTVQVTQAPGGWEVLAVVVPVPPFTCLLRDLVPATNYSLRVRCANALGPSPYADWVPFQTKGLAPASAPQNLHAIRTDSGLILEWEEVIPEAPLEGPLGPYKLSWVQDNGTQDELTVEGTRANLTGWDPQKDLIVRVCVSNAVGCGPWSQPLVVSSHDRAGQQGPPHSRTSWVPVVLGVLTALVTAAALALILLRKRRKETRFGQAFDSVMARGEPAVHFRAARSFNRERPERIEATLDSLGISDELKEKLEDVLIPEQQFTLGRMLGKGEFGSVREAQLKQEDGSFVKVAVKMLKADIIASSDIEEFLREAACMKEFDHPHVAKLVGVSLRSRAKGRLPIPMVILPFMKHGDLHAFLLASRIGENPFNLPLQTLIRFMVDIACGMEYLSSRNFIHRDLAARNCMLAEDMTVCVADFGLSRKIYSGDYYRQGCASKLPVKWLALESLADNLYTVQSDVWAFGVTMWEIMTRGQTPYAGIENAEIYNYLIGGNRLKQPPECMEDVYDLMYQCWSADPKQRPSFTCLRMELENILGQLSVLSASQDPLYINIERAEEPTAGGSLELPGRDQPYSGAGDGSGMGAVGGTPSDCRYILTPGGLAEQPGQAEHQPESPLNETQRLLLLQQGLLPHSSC

| Structure (SMILES) | Mean Inhib (%) (kinases [1]) | Mean Inhib (%) (kinases [2]) | Mean Inhib (%) (kinases [3]) | Mean Inhib (%) (kinases [4]) | Mean Inhib (%) (kinases [5]) | Mean Inhib (%) (kinases [6]) | Mean Inhib (%) (kinases [7]) | Mean Inhib (%) (kinases [8]) | Mean Inhib (%) (kinases [9]) | Mean Inhib (%) (kinases [10]) | Mean Inhib (%) (kinases [11]) | Mean Inhib (%) (kinases [12]) | Mean Inhib (%) (kinases [13]) | Mean Inhib (%) (kinases [14]) | Mean Inhib (%) (kinases [15]) | Mean Inhib (%) (kinases [16]) | Mean Inhib (%) (kinases [17]) | Mean Inhib (%) (kinases [18]) | Mean Inhib (%) (kinases [20]) | Mean Inhib (%) (kinases [21]) | other results |
| --- | --- | --- | --- | --- | --- | --- | --- | --- | --- | --- | --- | --- | --- | --- | --- | --- | --- | --- | --- | --- | --- |
| Cc1ccc(NC(=O)c2ccnc(N3CCOCC3)c2)cc1Nc1ccnc(N2CC(C)OC(C)C2)n1 (stereo not shown) [compound 3] | −2.7% | 3.6% | 8.0% | 0.7% | 2.2% | 4.2% | 0.0% | 1.4% | 3.5% | 6.9% | 15.1% | 6.7% | 9.3% | 0.2% | 0.2% | 14.5% | −2.5% | 2.2% | 1.7% | −3.6% | Mean Inhib (%) (kinases [19]; Test Conc(μM):ATP Conc(μM) 1:300): 5.8%; Mean Inhib (%) (kinases [22]): 0.3%; Mean Inhib (%) (kinases [23]): 8.0%; Mean Inhib (%) (kinases [24]): −3.5%; Mean Inhib (%) (kinases [25]): 9.3%; Mean Inhib (%) (kinases [26]): 14.4% |
| Cc1cc(Oc2ccnc(Nc3ccc(S(N)(=O)=O)cc3)c2)c(-c2ccccn2)nc1C [compound 65] | 7.2% | 8.1% | 2.3% | −2.5% | −8.6% | 4.1% | −3.2% | −2.6% | 47.1% | 47.0% | 1.0% | 29.9% | 1.4% | 6.5% | 6.6% | 12.5% | 15.5% | −5.0% | −6.6% | 3.0% | Mean Inhib (%) (kinases [19]; Test Conc(μM):ATP Conc(μM) 0.25): −3.7%; Mean Inhib (%) (kinases [22]): 1.7%; Mean Inhib (%) (kinases [23]): −0.7%; Mean Inhib (%) (kinases [24]): 88.8%; Mean Inhib (%) (kinases [25]): 4.2%; Mean Inhib (%) (kinases [26]): 5.4% |
